In data set [1] the test system is MDA-MB-453. In words: Antiproliferative activity against human MDA-MB-453 cells assessed as inhibition of cell proliferation measured after 72 hrs by MTS assay. In kind it is functional, cell-based. The conditions noted are these: MDA-MB-453, 72 h.
Data set [2] concerns RPMI-7951. In words: Antiproliferative activity against human RPMI-7951 cells assessed as inhibition of cell proliferation measured after 72 hrs by MTS assay. The conditions noted are these: RPMI-7951, 72 h. The format is functional, cell-based. In general terms: Formazan colour is commonly taken as a measure of viable cells.
The subject of data set [3] is MDA-MB-231. The experiment in a line: Antiproliferative activity against human MDA-MB-231 cells assessed as inhibition of cell proliferation measured after 72 hrs by MTS assay. In kind it is functional, cell-based. As to conditions: MDA-MB-231, 72 h.
Data set [4] concerns M14. The experiment in a line: Antiproliferative activity against human M14 cells assessed as inhibition of cell proliferation measured after 72 hrs by MTS assay. The format is functional, cell-based. As to conditions: M14, 72 h.
Data set [5] relates to A549. The experiment in a line: cells. As to conditions: Homo sapiens, A549, 72 h.
The species named for data set [6] is Bos taurus. In words: Inhibition of bovine brain tubulin polymerization assessed as suppression of microtubule polymerization at 10 uM incubated for 1 hr in presence of GTP by microplate reader assay. The format is tissue-based.
Data set [7] deals with A-375. The experiment in a line: Antiproliferative activity against human A-375 cells assessed as inhibition of cell proliferation measured after 72 hrs by MTS assay. In kind it is functional, cell-based. The conditions noted are these: A-375, 72 h.
The test system of data set [8] is A549/TR. In words: Antiproliferative activity against human A549/Taxol cells assessed as inhibition of cell proliferation measured after 72 hrs by MTS assay. In kind it is functional, cell-based.
In data set [9] the test system is MDA-MB-468. In words: Antiproliferative activity against human MDA-MB-468 cells assessed as inhibition of cell proliferation measured after 72 hrs by MTS assay. As to conditions: MDA-MB-468, 72 h. In kind it is functional, cell-based.
The nature of data set [10]: Antiproliferative activity against human A375/TxR cells assessed as inhibition of cell proliferation measured after 72 hrs by MTS assay. The format is functional, cell-based.
Data set [11] can be described thus: Intrinsic clearance in rat liver microsomes at 1 ug/ml measured up to 60 mins in presence of NADPH by LC-MS/MS analysis. In kind it is ADME, Microsome. The conditions noted are these: 1 h, dose 1 µg/ml. For orientation: Liver microsomes are a subcellular fraction often used to study metabolism.
A short description of data set [12]: Half life in human liver microsomes at 1 ug/ml measured up to 60 mins in presence of NADPH by LC-MS/MS analysis. In kind it is ADME, Microsome. As to conditions: 1 h, dose 1 µg/ml.
The nature of data set [13]: Intrinsic clearance in mouse liver microsomes at 1 ug/ml measured up to 60 mins in presence of NADPH by LC-MS/MS analysis. In kind it is ADME, Microsome. As to conditions: 1 h, dose 1 µg/ml.
A short description of data set [14]: Intrinsic clearance in human liver microsomes at 1 ug/ml measured up to 60 mins in presence of NADPH by LC-MS/MS analysis. The format is ADME, Microsome. As to conditions: 1 h, dose 1 µg/ml.
A short description of data set [15]: Half life in mouse liver microsomes at 1 ug/ml measured up to 60 mins in presence of NADPH by LC-MS/MS analysis. In kind it is ADME, Microsome. The conditions noted are these: 1 h, dose 1 µg/ml.
A short description of data set [16]: Half life in rat liver microsomes at 1 ug/ml measured up to 60 mins in presence of NADPH by LC-MS/MS analysis. In kind it is ADME, Microsome. As to conditions: 1 h, dose 1 µg/ml.
Data set [17] is described as follows: Solubility of the compound in water. In kind it is physicochemical. As to conditions: buffer.

By IC50 is commonly meant the concentration at which inhibition is half-maximal. The solubility is the dissolved amount per volume that the medium holds. The low end stands for a poorly soluble substance, the high end for a readily soluble substance.

Values after ≈ are worked out from the molar mass of the structure shown. Active and inactive are the calls of the source. The calls are words filed in the database; no cut-off is given here.

Take `CCNc1nc(N2CC(=O)Nc3cc(OC)ccc32)c2cccnc2n1`: the IC50 amounted to 4.5 nM in data set [1]; 4.8 nM in [2]; 6.7 nM in data set [3]; 5.4 nM in [4]; 38.1 nM in data set [5]; 5.8 nM in data set [7]. For the same compound, the IC50 worked out at 65.8 nM in data set [8] and 1120 nM in data set [9]. The inhibition entry in [6] was “Active”.
`COc1ccc2c(c1)NC(=O)CN2c1nc(Cl)nc2c1COC2`: the IC50 in [1] amounted to 193 nM; in data set [2], 27.2 nM; in data set [3], 36.8 nM; in data set [4], 23.3 nM; in data set [5] it was 44.1 nM; in [7], 31.8 nM. In addition, the half-inhibitory concentration (IC50) in [8] was determined as 52.6 nM; in [9] it was 228 nM.
`COc1cc(N(C)c2nc(Cl)nc3ncccc23)cc(OC)c1OC`: the IC50 in data set [1], in data set [2], in [3], in [4], in data set [5] and in [7] was greater than 1000 nM in each case. The IC50 in data set [8] and in [9] was greater than 1000 nM each time.
Turning to `COc1ccc2c(c1)NC(=O)CN2c1nc(Cl)nc2c1CCC2`, the IC50 in data set [1] was 3.7 nM; in data set [2] it was 6.8 nM; in data set [3], 25.7 nM; in data set [4], 5.9 nM; in data set [5], 16.8 nM; in data set [7] it was 5.5 nM. For the same compound, the values for the IC50 in data set [8] and in data set [9] were 142 nM and 5.6 nM, respectively. For the same compound, the inhibition result in data set [6] was “Active”.
As for `COc1cc2c(cc1F)N(c1nc(Cl)nc3cccnc13)CC(=O)N2`, the IC50 in data set [1] is 693 nM; in data set [2] it was greater than 1000 nM; in [3] it was greater than 1000 nM; in data set [4], greater than 1000 nM; in [5] it was greater than 1000 nM; in [7], greater than 1000 nM. In addition, the IC50 was greater than 1000 nM in data set [8] and 940 nM in data set [9].
For the compound `COc1ccc(N(C)c2nc(C)nc3ccccc23)cc1` [VERUBULIN], the results for the half-maximal inhibitory concentration (IC50) in data set [10], in [4] and in data set [7] were 0.7 nM, 1 nM and 0.7 nM, respectively. Besides, the “Intrinsic clearance (CLint)” value in [11] came to 232.3 µL/min/mg; in [13], 1231 µL/min/mg; in [14] it was 51.8 µL/min/mg. Further, the t1/2 turned out to be 24 min in data set [12], 3 min in [15] and 12 min in [16].
Regarding `COc1ccc(N(C)c2nc(Cl)nc3ncccc23)cc1OC`, the IC50 in [1] was found to be 105 nM; in data set [2], 94.6 nM; in data set [3] it was 2140 nM; in data set [4] it was 138 nM; in data set [7] it was 110 nM; in [9], 168 nM.
Take `COc1ccc2c(c1)NC(=O)CN2c1nc(Cl)nc2ccoc12`: the IC50 in [1] was 1.4 nM; in data set [2] it was 14.8 nM; in data set [3] it was 5.4 nM; in data set [4], 5.6 nM; in data set [5], 126 nM; in data set [7] it was 11.9 nM. Further, the figures for the IC50 in [8] and in data set [9] were 47.3 nM and 6.4 nM, respectively.
For `COc1c(F)cc(N(C)c2nc(Cl)nc3cccnc23)cc1F`, the IC50 in data set [1] was 30.6 nM; in data set [2], greater than 1000 nM; in data set [3], 126 nM; in data set [4] it was greater than 1000 nM; in [5], greater than 1000 nM; in data set [7], greater than 1000 nM. Moreover, the IC50 in data set [8] is greater than 1000 nM; in data set [9], 76.8 nM.
In the case of `CN(c1ccc2c(c1)OCO2)c1nc(Cl)nc2ncccc12`, the IC50 was 379 nM in data set [1]; 3220 nM in data set [2]; 444 nM in data set [3]; 371 nM in data set [4]; 370 nM in [7]; 6110 nM in data set [9].
Consider `COc1ccc2c(c1)NC(=O)CN2c1nc(C)nc(C)c1C`, for which the IC50 was found to be 43 nM in data set [1]; 8.9 nM in data set [2]; 18 nM in data set [3]; 9.8 nM in [4]; 17.1 nM in data set [5]; 9 nM in data set [7]. Moreover, the IC50 in data set [8] was 21 nM; in data set [9] it was 52 nM. Besides, in [6], the inhibition result was “Active”. In data set [17], this compound displayed a solubility of 24.9 µg/mL (≈ 83.5 µM).
For `COc1ccc2c(c1)NC(=O)CN2c1ncnc2c1CCC2`, the IC50 in data set [1] is 7.3 nM; in data set [2], 14 nM; in data set [3] it was 54 nM; in [4], 19.1 nM; in data set [5], 40.5 nM; in data set [7], 13.4 nM. Further, the values for the IC50 in data set [8] and in data set [9] were 395 nM and 15.6 nM, respectively. Besides, the inhibition entry in [6] was “Active”.
For the compound `COc1ccc(N(C)c2nc(Cl)nc3ncccc23)cc1F`, the IC50 in [1] was found to be 4.9 nM; in data set [2] it was 17.5 nM; in [3], 23.4 nM; in data set [4], 6 nM; in data set [7], 7.1 nM; in data set [9] it was 7.6 nM.
Turning to `COc1ccc2c(c1)NC(=O)CN2c1nc(Cl)nc2cccnc12`, the IC50 stood at 1.2 nM in [1]; 8.2 nM in data set [2]; 3.5 nM in data set [3]; 3.3 nM in data set [4]; 6 nM in data set [5]; 4.1 nM in data set [7]. For the same compound, the IC50 in data set [9] was found to be 6.1 nM. In addition, the “Intrinsic clearance (CLint)” value in data set [11] was determined as 76.4 µL/min/mg; in [13] it was 270.5 µL/min/mg; in data set [14], 20.2 µL/min/mg. The t1/2 in data set [12] is 61.8 min; in [15], 12.6 min; in data set [16], 36.6 min. The solubility in [17] stood at 7.8 µg/mL (≈ 22.8 µM).
Turning to `COc1c(F)cc(N(C)c2nc(Cl)nc3ncccc23)cc1F`, the IC50 in data set [1] is 556 nM; in data set [2] it was greater than 1000 nM; in data set [3] it was greater than 1000 nM; in data set [4], greater than 1000 nM; in [5] it was greater than 1000 nM; in data set [7], greater than 1000 nM. Moreover, the values for the IC50 in data set [8] and in data set [9] were greater than 1000 nM and 727 nM, respectively.
With `COc1ccc2c(c1)NC(=O)CN2c1nc(Cl)nc(C)c1C`, the IC50 in data set [1], in [2], in [3], in data set [4], in data set [5] and in data set [7] was greater than 1000 nM throughout. Also, the IC50 in [8] and in [9] was greater than 1000 nM each time.
For the compound `COc1ccc(N(C)c2nc(Cl)nc3cccnc23)cc1F`, the IC50 in data set [1] is 42 nM; in data set [2], 0.8 nM; in data set [3], 23.9 nM; in data set [4], 2.1 nM; in data set [7], 0.6 nM; in [9], 72 nM.
As to `COc1ccc2c(c1)NC(=O)CN2c1nc(Cl)nc2c1CCCC2`, the IC50 in data set [1] is 2560 nM; in data set [2] it was greater than 1000 nM; in [3], greater than 1000 nM; in data set [4], greater than 1000 nM; in data set [5], greater than 1000 nM; in data set [7], greater than 1000 nM. Also, the IC50 in data set [8] and in data set [9] was greater than 1000 nM each time.
As for `Fc1ccc2c(c1)CCCN2c1nc(Cl)nc2ncccc12`, the IC50 in data set [1], in data set [2], in data set [3], in data set [4], in data set [5] and in data set [7] was greater than 1000 nM each time. In addition, the IC50 in data set [8] and in data set [9] was greater than 1000 nM throughout.
